Measured values as given in patent publication EP4813384A1, “COMBINED PHARMACEUTICAL PREPARATION OF TAFAMIDIS OR PHARMACEUTICALLY ACCEPTABLE SALT THEREOF AND PROLINE HYDROXYLASE INHIBITOR” (Huaya Jiyuan (Shenzhen) Pharmaceutical Co., Ltd., priority 2024, dated 2025).

Tests used:
rats with renal anemia = assay: Cisplatin-induced renal anemia rat model; assay type: in vivo, Male Sprague-Dawley (SD) rats; conditions: 5 mg/kg roxadustat
Method: Male Sprague-Dawley (SD) rats are allowed a one-week acclimation period, after which cisplatin (6 mg/kg) is administered through tail vein injection. A second injection is given one week later. Two weeks after the first administration, successful establishment of a renal disease model is confirmed by measuring serum creatinine and urea levels. The successfully modeled rats are randomly divided into three groups: cisplatin group (n = 6), 5 mg/kg roxadustat group (n = 6), and 5 mg/kg roxadustat + 10 mg/kg tafamidis group (n = 6), with continuous administration for 4 weeks. A solvent is administered to the normal control group (n = 7) and the cisplatin group based on the same drug administration regimen. After drug administration, blood analysis is performed once per week using a Mindray automated hematology analyzer (BC-5150). After sample collection, the rats are euthanized. Statistical significance is determined by one-way analysis of variance (ANOVA), and then a Dunnett's test is performed for comparison with the cisplatin group (*P < 0.05, **P < 0.01, ***P < 0.001).

[1] = test system: erythropoietin (EPO) gene expression; assay: Real-time reverse transcription quantitative PCR (qRT-PCR) assay of EPO gene expression; assay type: cell-based; conditions: HepG2 cells, 24 hours, relative to vehicle
Method: Experimental method: HepG2 hepatocellular carcinoma cells are seeded into a 12-well plate. After 24 hours, 10 µM roxadustat, 1 µM tafamidis, 5 µM tafamidis, 10 µM tafamidis, and 20 µM tafamidis, a combination of 10 µM roxadustat and 1 µM tafamidis, a combination of 10 µM roxadustat and 5 µM tafamidis, a combination of 10 µM roxadustat and 10 µM tafamidis, and a combination of 10 µM roxadustat and 20 µM tafamidis, are added separately, and the cells are co-incubated with the compounds for 24 hours. No treatment is applied to the vehicle group. RNA is extracted using a TRIZOL reagent. cDNA transcription is performed using an All-in-one™ First-Strand cDNA Synthesis Kit (for specific operating procedures, see the manufacturer's instructions). A SYBR reagent is used for fluorescence signal detection, and GAPDH is used as an internal control. The qRT-PCR primers are as follows: • GAPDH_fwd, […]; • GAPDH_rev, TGGTGAAGACGCCAGTGGA; • EPO_fwd, […]; • EPO_rev, […].
The test results are shown in FIG. 2: relative to the vehicle (control group), monotherapy with 10 µM roxadustat upregulates erythropoietin (EPO) gene expression by 1.5-fold, while monotherapy with 20 µM tafamidis upregulates EPO gene expression by 1-fold. […] Such activation may have potential therapeutic value for treating diseases such as ischemic diseases or anemia. Statistical analysis is performed using SPSS software. […]

HIF-2α = molecular target: T1, HIF-2α (Homo sapiens, UniProt Q99814); assay: Luciferase reporter gene assay (HRE-driven luciferase in stably transfected 786-O cells); assay type: cell-based; conditions: 786-O HRE-Luc cells, 24 hours, relative to blank control
T1 construct: 786-O is a renal carcinoma cell line that predominantly expresses HIF-2α; endogenous in cells; host or cells: 786-O cells stably transfected with HRE-driven luciferase reporter
From the text: Experimental principles: 786-O is a renal carcinoma cell line that predominantly expresses HIF-2α and lacks functional HIF-1α. This characteristic makes 786-O cells an ideal model for studying HIF-2α transcriptional activity and related signaling pathways. In the luciferase reporter gene assay, a 786-O monoclonal cell line that stably expresses hypoxia response element (HRE)-driven luciferase (Luc) activity is obtained through puromycin selection. The HIF-2α agonist promotes dimerization of HIF-2α and HIF-β, and activates an HRE promoter. By measuring fluorescence intensity, luciferase activity can be determined, thereby assessing the ability of the HIF-2α agonist to promote transcription.
Experimental method: A total of 6000 stably transfected 786-O cells stably containing HRE and Luc sequences are seeded in each well of a 96-well plate, and 100 µL of RPMI-1640 culture medium containing 10% fetal bovine serum is added to each well. After 24 hours, a compound at a corresponding concentration is added to each well. A blank group is set as a control. Only a DMSO solvent is added in the well of the blank group. For initial compound screening, both tafamidis and tafamidis meglumine are tested at two concentrations: 2 µM and 20 µM. For concentration-gradient determination, each concentration is tested in triplicate. After co-incubation for 24 hours, the culture medium is discarded, and 20 µL of firefly luciferase reporter gene cell lysis buffer (RG126M, Beyotime) is added to each well. The 96-well plate is shaken on a microplate shaker for 10 minutes. After shaking, 10 µL of lysate is transferred into a white opaque plate, and then 10 µL of Steady-Lumi™ firefly luciferase assay reagent (RG058S, Beyotime) is added to each well. Finally, luminescence is measured using a microplate reader (Agilent Synergy Neo2). E20 represents the effect of the compound at a 20 µM concentration, and is calculated as: E20 = fluorescence value of the 20 µM well ÷ fluorescence value of the blank control × 100%. E2 represents the effect of the compound at a 2 µM concentration, and is calculated as: E2 = fluorescence value of the 2 µM well ÷ fluorescence value of the blank control × 100%. EC50 is the compound concentration at which the agonistic efficacy is increased by 50% relative to the blank control. […] The maximum activation percentage (Emax) of an agonist refers to a ratio, expressed as a percentage, of the fluorescence value corresponding to the maximal effect (observed maximal response) induced when the agonist concentration reaches receptor-binding saturation in a particular receptor system, to the fluorescence value of the receptor system in the absence of agonist. […]

T1 sequence (Q99814 whole entry): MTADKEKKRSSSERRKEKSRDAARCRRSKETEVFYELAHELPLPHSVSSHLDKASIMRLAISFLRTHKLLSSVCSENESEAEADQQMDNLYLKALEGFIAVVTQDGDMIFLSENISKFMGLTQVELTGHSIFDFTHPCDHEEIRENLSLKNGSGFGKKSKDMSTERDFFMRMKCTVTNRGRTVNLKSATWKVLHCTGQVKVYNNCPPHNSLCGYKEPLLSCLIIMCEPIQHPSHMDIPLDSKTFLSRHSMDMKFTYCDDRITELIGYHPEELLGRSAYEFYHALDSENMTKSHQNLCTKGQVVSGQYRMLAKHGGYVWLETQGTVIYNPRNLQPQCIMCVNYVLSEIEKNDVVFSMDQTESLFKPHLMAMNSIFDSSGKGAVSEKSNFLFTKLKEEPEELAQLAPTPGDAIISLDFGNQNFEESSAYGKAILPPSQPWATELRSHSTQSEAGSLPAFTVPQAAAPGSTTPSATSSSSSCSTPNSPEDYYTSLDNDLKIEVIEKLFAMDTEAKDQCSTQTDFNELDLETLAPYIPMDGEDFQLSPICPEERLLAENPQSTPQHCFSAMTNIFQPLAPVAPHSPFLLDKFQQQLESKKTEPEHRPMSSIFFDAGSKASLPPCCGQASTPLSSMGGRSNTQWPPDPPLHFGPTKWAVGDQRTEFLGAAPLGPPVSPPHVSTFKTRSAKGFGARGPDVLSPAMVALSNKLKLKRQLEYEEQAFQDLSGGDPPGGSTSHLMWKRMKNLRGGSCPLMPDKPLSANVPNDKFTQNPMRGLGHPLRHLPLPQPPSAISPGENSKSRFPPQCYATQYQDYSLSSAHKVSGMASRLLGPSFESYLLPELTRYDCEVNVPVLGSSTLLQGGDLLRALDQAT
T1 sequence (P27540 whole entry partner): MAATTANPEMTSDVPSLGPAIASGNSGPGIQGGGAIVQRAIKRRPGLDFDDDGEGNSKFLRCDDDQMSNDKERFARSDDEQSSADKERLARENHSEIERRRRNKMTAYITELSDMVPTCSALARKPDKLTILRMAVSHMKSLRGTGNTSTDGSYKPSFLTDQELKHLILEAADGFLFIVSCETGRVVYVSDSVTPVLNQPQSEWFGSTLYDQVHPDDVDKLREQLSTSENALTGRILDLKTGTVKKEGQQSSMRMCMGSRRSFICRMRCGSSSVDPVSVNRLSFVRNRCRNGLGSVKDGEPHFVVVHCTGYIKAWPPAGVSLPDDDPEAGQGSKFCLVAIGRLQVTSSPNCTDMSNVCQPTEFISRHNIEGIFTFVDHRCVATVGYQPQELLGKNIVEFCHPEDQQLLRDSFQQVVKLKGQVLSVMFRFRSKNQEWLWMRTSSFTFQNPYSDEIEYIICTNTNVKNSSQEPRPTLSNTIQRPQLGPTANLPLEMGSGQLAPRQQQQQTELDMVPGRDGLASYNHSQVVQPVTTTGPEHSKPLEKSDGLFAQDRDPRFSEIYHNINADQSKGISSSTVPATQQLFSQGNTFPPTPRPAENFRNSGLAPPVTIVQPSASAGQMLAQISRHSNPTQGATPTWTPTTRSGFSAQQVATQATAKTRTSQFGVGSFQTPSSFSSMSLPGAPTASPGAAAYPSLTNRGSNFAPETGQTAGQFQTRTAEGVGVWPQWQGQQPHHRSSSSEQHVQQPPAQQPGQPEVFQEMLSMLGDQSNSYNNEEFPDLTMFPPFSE

SMILES: Cc1nc(C(=O)NCC(=O)O)c(O)c2ccc(Oc3ccccc3)cc12 [roxadustat]
- Hematocrit (rats with renal anemia; Week 4, n = 6): 52.2 ± 1.3%
- Hemoglobin concentration (rats with renal anemia; Week 4, n = 6): 143.3 ± 4.1 g/L
- Red blood cell count (rats with renal anemia; Week 4, n = 6): 7.03 ± 0.40 ×10^12 cells/L
- kidneys appear red (gross observation of kidney tissues) (rats with renal anemia; group n = 6): 3 rats
- upregulates erythropoietin (EPO) gene expression ([1]; 10 µM roxadustat monotherapy): 1.5 fold

SMILES: O=C(O)c1ccc2nc(-c3cc(Cl)cc(Cl)c3)oc2c1 [tafamidis meglumine]
- agonistic efficacy at a 2 µM concentration (E2) (HIF-2α): 122%
- agonistic efficacy at a 20 µM concentration (E20) (HIF-2α): 223%

SMILES: O=C(O)c1ccc2nc(-c3cc(Cl)cc(Cl)c3)oc2c1 [tafamidis, 2-(3,5-dichlorophenyl)-1,3-benzoxazole-6-carboxylic acid]
- upregulates EPO gene expression ([1]; 20 µM tafamidis monotherapy): 1 fold
- agonistic efficacy at a 2 µM concentration (E2) (HIF-2α): 142%
- agonistic efficacy at a 20 µM concentration (E20) (HIF-2α): 207%
